Source: ChEMBL document CHEMBL6096628, “Discovery of a Highly Potent and Selective BRD9 PROTAC Degrader Based on E3 Binder Investigation for the Treatment of Hematological Tumors” (J Med Chem, 2024)
The source made the active and inactive calls. The rule behind the calls is not given here.

Columns and labels:
[1] = Cmax in ICR mouse at 20 mg/kg, IG administered via gavage and measured after 24 hrs by LC-MS analysis; format: ADME, organism-based; conditions: in vivo, po
[2] = biological target: T1, Protein cereblon/Bromodomain-containing protein 9 (Homo sapiens, UniProt Q9H8M2+Q96SW2); assay: PROTAC activity at CRBN/BRD9 in human MV4-11 cells assessed as induction of BRD9 degradation at 10 nM by Western blot analysis relative to control; format: cell-based
Target sequence in this assay (Q96SW2 whole entry, looked up): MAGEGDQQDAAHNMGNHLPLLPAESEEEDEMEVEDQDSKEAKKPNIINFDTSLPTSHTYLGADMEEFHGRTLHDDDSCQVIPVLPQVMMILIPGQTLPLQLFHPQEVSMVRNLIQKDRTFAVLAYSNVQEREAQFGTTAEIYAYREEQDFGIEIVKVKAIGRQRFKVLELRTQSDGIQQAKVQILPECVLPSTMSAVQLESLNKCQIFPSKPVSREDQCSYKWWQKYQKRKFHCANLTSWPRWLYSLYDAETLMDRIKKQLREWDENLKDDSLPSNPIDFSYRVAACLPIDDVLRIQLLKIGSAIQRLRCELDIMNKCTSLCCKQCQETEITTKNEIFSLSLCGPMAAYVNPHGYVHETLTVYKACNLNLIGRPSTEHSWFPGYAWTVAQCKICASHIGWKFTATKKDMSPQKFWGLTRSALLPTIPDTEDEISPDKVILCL
Target sequence in this assay (Q9H8M2 whole entry, looked up): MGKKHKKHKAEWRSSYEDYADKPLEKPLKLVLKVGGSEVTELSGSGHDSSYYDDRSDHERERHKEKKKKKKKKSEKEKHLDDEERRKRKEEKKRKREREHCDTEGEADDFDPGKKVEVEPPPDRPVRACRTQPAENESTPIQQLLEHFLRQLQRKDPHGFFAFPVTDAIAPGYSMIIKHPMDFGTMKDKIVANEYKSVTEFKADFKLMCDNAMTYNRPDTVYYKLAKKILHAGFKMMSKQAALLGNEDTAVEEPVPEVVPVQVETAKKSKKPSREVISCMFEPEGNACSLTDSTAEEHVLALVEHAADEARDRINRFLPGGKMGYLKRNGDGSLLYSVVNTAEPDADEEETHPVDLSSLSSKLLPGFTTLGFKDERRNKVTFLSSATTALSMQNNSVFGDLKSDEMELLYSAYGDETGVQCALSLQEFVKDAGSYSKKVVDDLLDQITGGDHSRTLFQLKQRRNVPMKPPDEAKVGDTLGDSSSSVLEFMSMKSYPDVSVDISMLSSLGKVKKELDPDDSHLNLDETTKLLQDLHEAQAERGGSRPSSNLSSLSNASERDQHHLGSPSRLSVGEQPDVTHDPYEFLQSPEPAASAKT

[3] = biological target: T1, Protein cereblon/Bromodomain-containing protein 9; assay: PROTAC activity at CRBN/BRD9 in human MV4-11 cells assessed as induction of BRD9 degradation at 100 nM by Western blot analysis relative to control; format: cell-based
Target sequence in this assay (Q96SW2 whole entry, looked up): as the sequence (Q96SW2 whole entry, looked up) above
Target sequence in this assay (Q9H8M2 whole entry, looked up): as the sequence (Q9H8M2 whole entry, looked up) above

MV4-11 [4] = assay: Antiproliferative activity against human MV4-11 cells assessed as inhibition of cell growth incubated for 7 days by MTS reagent based assay; format: functional; conditions: MV4-11, 168 h
[5] = biological target: T1, Protein cereblon/Bromodomain-containing protein 9; assay: PROTAC activity at CRBN/BRD9 in human MV4-11 cells assessed as induction of BRD9 degradation by Western blot analysis; format: cell-based
[6] = biological target: T1, Protein cereblon/Bromodomain-containing protein 9; assay: PROTAC activity at CRBN/BRD9 in human MV4-11 cells assessed as induction of BRD9 degradation at 0.33 nM measured within 2 hrs by Western blot analysis; format: cell-based
Target sequence in this assay (Q96SW2 whole entry, looked up): as the sequence (Q96SW2 whole entry, looked up) above
Target sequence in this assay (Q9H8M2 whole entry, looked up): as the sequence (Q9H8M2 whole entry, looked up) above

[7] = biological target: T1, Protein cereblon/Bromodomain-containing protein 9; assay: PROTAC activity at CRBN/BRD9 in human MV4-11 cells assessed as induction of BRD9 degradation at 0.33 nM measured after 4 hrs by Western blot analysis relative to control; format: cell-based
Target sequence in this assay (Q96SW2 whole entry, looked up): as the sequence (Q96SW2 whole entry, looked up) above
Target sequence in this assay (Q9H8M2 whole entry, looked up): as the sequence (Q9H8M2 whole entry, looked up) above

[8] = biological target: T1, Protein cereblon/Bromodomain-containing protein 9; assay: PROTAC activity at CRBN/BRD9 in human MV4-11 cells assessed as induction of BRD9 degradation at 0.33 nM in presence of N-(1,1-dioxidotetrahydro-2H-thiopyran-4-yl)-5-ethyl-4-oxo-7-(3-(trifluoromethyl)phenyl)-4,5-dihydrothieno[3,2-c]pyridine-2-carboximidamide by Western blot analysis; format: cell-based
Target sequence in this assay (Q96SW2 whole entry, looked up): as the sequence (Q96SW2 whole entry, looked up) above
Target sequence in this assay (Q9H8M2 whole entry, looked up): as the sequence (Q9H8M2 whole entry, looked up) above

MV4-11 [9] = assay: Induction of GSPT1 degradation in human MV4-11 cells at 0.1 to 100 nM by Western blotting analysis; format: cell-based; conditions: dose 0.1-100 nM
MV4-11 [10] = assay: Induction of IKZF1 degradation in human MV4-11 cells at 1 to 100 nM by Western blot analysis; format: cell-based; conditions: dose 1-100 nM
MV4-11 [11] = assay: Induction of BRD4 degradation in human MV4-11 cells at 100 nM by Western blot analysis; format: cell-based
MV4-11 [12] = assay: Induction of BRD7 degradation in human MV4-11 cells at 100 nM by Western blot analysis; format: cell-based
MV4-11 [13] = assay: Downregulation of BRD9 protein expression in human MV4-11 cells by proteomic analysis; format: functional, cell-based
MV4-11 [14] = assay: Downregulation of CHEK2 protein expression in human MV4-11 cells by proteomic analysis; format: functional, cell-based
MV4-11 [15] = assay: Downregulation of TTK protein expression in human MV4-11 cells by proteomic analysis; format: functional, cell-based
MV4-11 [16] = assay: Cell cycle arrest in human MV4-11 cells assessed as accumulation of cells at G1 phase at 0.01 to 10 nM incubated for 24 hrs by PI staining based flow cytometric analysis; format: functional; conditions: dose 0.01-10 nM
MV4-11 [17] = assay: Induction of apoptosis in human MV4-11 cells assessed as viable cells at 0.01 nM incubated for 48 hrs by Annexin V-FITC/PI staining based flow cytometric analysis (reference value: 94.80 %); format: functional; conditions: read-out: Activity
MV4-11 [18] = assay: Induction of apoptosis in human MV4-11 cells assessed as late apoptotic cells at 0.01 nM incubated for 48 hrs by Annexin V-FITC/PI staining based flow cytometric analysis (reference value: 0.91 %); format: functional
MV4-11 [19] = assay: Induction of apoptosis in human MV4-11 cells assessed as necrotic cells at 0.01 nM incubated for 48 hrs by Annexin V-FITC/PI staining based flow cytometric analysis (reference value: 0.07 %); format: functional
MV4-11 [20] = assay: Induction of apoptosis in human MV4-11 cells assessed as viable cells at 0.1 nM incubated for 48 hrs by Annexin V-FITC/PI staining based flow cytometric analysis (reference value: 94.80 %); format: functional; conditions: read-out: Activity
MV4-11 [21] = assay: Induction of apoptosis in human MV4-11 cells assessed as early apoptotic cells at 1 nM incubated for 48 hrs by Annexin V-FITC/PI staining based flow cytometric analysis (reference value: 4.22 %); format: functional
MV4-11 [22] = assay: Induction of apoptosis in human MV4-11 cells assessed as necrotic cells at 1 nM incubated for 48 hrs by Annexin V-FITC/PI staining based flow cytometric analysis (reference value: 0.07 %); format: functional
MV4-11 [23] = assay: Induction of apoptosis in human MV4-11 cells assessed as viable cells at 10 nM incubated for 48 hrs by Annexin V-FITC/PI staining based flow cytometric analysis (reference value: 94.80 %); format: functional; conditions: read-out: Activity
MV4-11 [24] = assay: Induction of apoptosis in human MV4-11 cells assessed as early apoptotic cells at 10 nM incubated for 48 hrs by Annexin V-FITC/PI staining based flow cytometric analysis (reference value: 4.22 %); format: functional
MV4-11 [25] = assay: Induction of apoptosis in human MV4-11 cells assessed as necrotic cells at 10 nM incubated for 48 hrs by Annexin V-FITC/PI staining based flow cytometric analysis (reference value: 0.07 %); format: functional
Kasumi 1 = assay: Antiproliferative activity against human Kasumi 1 cells assessed as inhibition of cell growth incubated for 7 days by MTS reagent based assay; format: functional; conditions: Kasumi 1, 168 h
[26] = AUC (0 to t) in ICR mouse at 20 mg/kg, IG administered via gavage and measured after 24 hrs by LC-MS analysis; format: ADME, organism-based; conditions: in vivo, po
[27] = Toxicity in Balb/c nude mouse xenografted with human MV4-11 cells assessed as weight loss at 20 mg/kg, ip administered once a day for 20 days; format: organism-based; conditions: in vivo, 480 h, time 20 day
[28] = biological target: T1, Protein cereblon/Bromodomain-containing protein 9; assay: In vivo PROTAC activity at CRBN/BRD9 in Balb/c nude mouse xenografted with human MV4-11 cells assessed as induction of BRD9 degradation in tumor at 20 mg/kg, ip administered once daily for 20 days by Western blot analysis; format: functional, organism-based; conditions: time 20.0 day
Target sequence in this assay (Q96SW2 whole entry, looked up): as the sequence (Q96SW2 whole entry, looked up) above
Target sequence in this assay (Q9H8M2 whole entry, looked up): as the sequence (Q9H8M2 whole entry, looked up) above

Mus musculus = assay: Upregulation of BRD7 expression in Balb/c nude mouse tumor xenografted with human MV4-11 cells at 20 mg/kg, ip administered once daily for 20 days by Western blot analysis; format: functional, organism-based; conditions: time 20.0 day
OCI-Ly10 [29] = assay: Antitumor activity against human OCI-Ly10 cells xenografted in Balb/c nude mouse assessed as tumor volume at 30 mg/kg, po administered once daily for 18 days (reference value: 561 +/- 370 mm^3); format: functional; conditions: time 18 day
OCI-Ly10 [30] = assay: Antitumor activity against human OCI-Ly10 cells xenografted in Balb/c nude mouse assessed as tumor mass at 30 mg/kg, po administered once daily for 18 days (reference value: 1.12 +/- 0.44 g); format: functional; conditions: time 18 day
MV4-11 [31] = assay: Downregulation of beta-catenin expression level in human MV4-11 cells at 0.1 to 10 nM measured after 24 to 48 hrs by Western blot analysis; format: functional, cell-based; conditions: dose 0.1-10 nM, time 24-48 hrs
MV4-11 [32] = assay: Upregulation of C-myc mRNA expression level in human MV4-11 cells at 0.1 to 10 nM measured after 24 to 48 hrs by qPCR analysis; format: functional, cell-based; conditions: dose 0.1-10 nM, time 24-48 hrs

SMILES: COc1cc(-c2cn(C)c(=O)c3ccccc23)cc(OC)c1CN1CCC(CN2CCC(c3ccc4c5c(cccc35)C(=O)N4C3CCC(=O)NC3=O)CC2)CC1 (stereo not given)
- Cmax [1]: 127 ng/mL
- Activity [2]: 98.5%
- Activity [3]: 95%
- IC50 (MV4-11 [4]): 0.27 nM
- Activity [5]: Dose-dependent-effect
- DC50 [5]: 0.016 nM
- Activity [6]: Active
- Activity [7]: 92%
- Activity [8]: inactive
- Activity (MV4-11 [9]): inactive
- Activity (MV4-11 [10]): Active; Moderate Degradation Observed
- Activity (MV4-11 [11]): inactive
- Activity (MV4-11 [12]): inactive
- Activity (MV4-11 [13]): Active
- Activity (MV4-11 [14]): Active
- Activity (MV4-11 [15]): Active
- Activity (MV4-11 [16]): Active
- viability at 10 pM (MV4-11 [17]): 92%
- Activity (MV4-11 [18]): 1.63%
- Activity (MV4-11 [19]): 0.03%
- viability at 0.0001 µM (MV4-11 [20]): 87.4%
- Activity (MV4-11 [21]): 13.79%
- Activity (MV4-11 [22]): 0.06%
- viability at 0.01 µM (MV4-11 [23]): 74.8%
- Activity (MV4-11 [24]): 16.97%
- Activity (MV4-11 [25]): 0.21%
- IC50 (Kasumi 1): 1.13 nM
- AUC(0-t) at 24 h [26]: 1300 ng·h/mL
- Activity [27]: Non-toxic
- Activity [28]: Active
- Activity (Mus musculus): Active
- Activity (OCI-Ly10 [29]): 309 mm3
- Activity (OCI-Ly10 [30]): 0.56 g
- Activity (MV4-11 [31]): Active
- Activity (MV4-11 [32]): Active
